According to patent publication US20230256051A1, “MODIFIED KISSPEPTIN RECEPTOR AGONISTS FOR FATTY LIVER DISEASE” (priority 2020, published 2023):
“Also recorded” adds a separate entry of the source. No end group written: not given here.

How the values were obtained:
[1] = test system: HFD-fed C57BL6/J mice (mouse model of NAFLD); assay: Diet-induced (HFD) mouse model of NAFLD, TAK-448 infused by subcutaneous mini-osmotic pump; format: in vivo; details: for liver steatosis / lipid accumulation (H&E, Oil Red O): 0.3 nmol/hour s.c. mini-osmotic pump, vs vehicle (PBS); for liver steatosis / lipid accumulation (H&E, Oil Red O) / insulin resistance / sensitivity (ITT) / glucose tolerance (GTT) / fasting glucose / body weight: 4 weeks; for insulin resistance / sensitivity (ITT) / glucose tolerance (GTT) / fasting glucose / body weight: 0.3 nmol/hour s.c. pump; for insulin resistance / sensitivity (ITT): 6 h fast, insulin 0.5 U/kg i.p.; for glucose tolerance (GTT): 12 h fast, D-glucose 1 g/kg i.p.; for liver triglycerides (TGs) / serum/blood glycerol: endpoint
Protocol: Animals were treated for 4 weeks unless otherwise indicated and maintained on RD or HFD (total of 10 weeks). Blood glucose measurements were obtained via a small nick in the lateral tail vein using a glucometer (Bayer ContourTM). For glucose tolerance tests, mice were fasted for 12 hours and then injected intraperitoneally with D-glucose (1 g/kg). For the insulin tolerance tests, mice were fasted for 6 hours and then injected intraperitoneally with insulin (0.5 U/kg; Novo NordiskTM). Mice where individually housed in an 8-chamber Clinical Laboratory Animal Monitoring System (CLAMS) with controlled light and feeding. Carbon dioxide output, oxygen update, respiratory exchange ratio (RER), ambulatory movement, and feeding were measured over a 4-day period. Serum insulin levels were measured using the Ultra-Sensitive Mouse Insulin ELISA Kit (Crystal ChemTM). Serum glycerol levels were measured using the Glycerol Assay Kit (SigmaTM). Liver triglycerides were measured using the triglyceride quantification kit (MBLTM international Catalog # JM-K622-500). Free fatty acids were measured using the Free Fatty Acid Quantification Kit (SigmaTM, […]). ALT levels were measured using Liquid ALT (SGPT) Reagent set according to the manufacturer's instructions; cholesterol levels were measured using the Cholesterol set according to the manufacturer's instructions. Immunoblot assays were conducted according to known methods. Mouse liver tissue or primary hepatocytes were homogenized in RIPA lysis buffer containing protease inhibitors and centrifuged at 4° C.; the protein expression in lysates was analyzed by Western blot analysis. Protein was separated using SDS-PAGE and probed using the following antibodies: […] Mouse anti-β actin (1:5000, Thermo Fisher ScientificTM) or anti-vinculin (1:1000, Bio-RadTM) were used for loading control. Protein was then incubated for 1 hour in horseradish peroxidase (HRP)-conjugated rabbit (1:2500, Cell Signaling TechnologyTM) or mouse (1:2500, Cell Signaling TechnologyTM) secondary antibody. Blots were imaged by chemiluminescence with ChemiDocTM Touch imaging system (Bio-RadTM), SuperSignal and West Dura Extended Duration Substrate (Thermo ScientificTM). Protein levels were quantified using Image Lab Software (Bio-RadTM). Total RNA was extracted from cells using the Trizol method. Reverse transcription was done according to manufacturer's instructions using iScript RT Supermix (Bio-RadTM). Gene expression was determined using SYBR green real-time qPCR (RT-qPCR) as described previously using primers shown in Table 7, below. The following primers were purchased from BioRadTM (validated […] primers): Srebpl, Aqp3, Aqp9, Gpat2, Agpat2, Dgat1, Dgat2, Mogat1, Slc2a2, […]1, Sod1, Sod2, Gss, Ucp2, and Gpam. Il-13 was purchased from QiagenTM (QT00099554). Primers for Srebf1, Aqp3, Aqp9, Gpat2, Agpat2, Dgat1, Dgat2, Mogat1, Slc2a2, Lgpat1, Sod1, Sod2, Gss, Ucp2, and Gpam are pre-made and were purchased from BioRadTM. Liver tissue was immediately fixed in 10% neutral formalin after mice were euthanized. Tissue was processed for histology by the Research Pathology Services at Rutgers University. Livers were sectioned into 5 μm thick sections and stained with hematoxylin and eosin. Sections were examined by light microscopy for histopathological changes. C57BL/6J mice fed high fat diet (HFD) or control regular diet (RD) for 12 weeks (4-5/group). TAK-448 (TAK) or Vehicle (Veh i.e., PBS controls) were administered for 4 weeks using an ALZET mini-osmotic pump implanted subcutaneously. Steatosis is shown by hematoxylin and eosin stained mouse livers (lipid accumulation, small white droplets, arrowheads) and by Oil Red O staining of lipids (red dots) in control livers (FIG. 1A). This was prevented in the TAK-448 treated group (FIG. 1A). […]

[2] = test system: primary mouse hepatocytes; assay: FFA-loaded isolated primary mouse hepatocytes treated with KP-10 or TAK
Protocol: (n=4) * p < 0.05; One-way ANOVA followed by Dunnett’s post-hoc test.
Primary hepatocytes from mice were isolated according to known methods. Mice (wild-type, C57BL6) or LKO and littermate controls were anesthetized using a ketamine/xylazine mixture (Henry Schein™). The liver was cannulated via the hepatic portal vein and first perfused with 37° C. Kreb’s Ringer solution containing EGTA for 10 minutes. After the first wash, a second Kreb’s Ringer solution containing CaCl2 and LIBERASE (Roche™) was used until the liver was thoroughly perfused. Hepatocytes were filtered through a gauze mesh and resuspended in William’s Media E (Sigma™) with 10 % FBS (Sigma™), 200 nM dexamethasone (Sigma™), 5 mM pen/strep (Fisher™), 2 mM L-glutamine (Fisher™). Cells were plated at a density of 3 × 10^5 on 6-well collagen-coated plates (Sigma™). Hepatocytes were left to recover overnight and then were serum starved for 3 hours prior to experiments. For free fatty acid (FFA) loading, 150 µM oleic and 150 µM palmitic acid was conjugated with 2% BSA (0.3 mM).

[3] = cited from earlier work
[4] = target: T1, KISS1R (Homo sapiens, UniProt Q969F8); set-up: expressed in transfected cells; host or cells: CHO (CHO-KISS1R), membrane preparations; details: CHO-KISS1R membrane preparations; means +/- SE; n = 3-5; read-out: IC50 against [125I]KP-54 binding to KISS1R; cited from earlier work
Target sequence in this assay (Q969F8 whole entry, species assumed): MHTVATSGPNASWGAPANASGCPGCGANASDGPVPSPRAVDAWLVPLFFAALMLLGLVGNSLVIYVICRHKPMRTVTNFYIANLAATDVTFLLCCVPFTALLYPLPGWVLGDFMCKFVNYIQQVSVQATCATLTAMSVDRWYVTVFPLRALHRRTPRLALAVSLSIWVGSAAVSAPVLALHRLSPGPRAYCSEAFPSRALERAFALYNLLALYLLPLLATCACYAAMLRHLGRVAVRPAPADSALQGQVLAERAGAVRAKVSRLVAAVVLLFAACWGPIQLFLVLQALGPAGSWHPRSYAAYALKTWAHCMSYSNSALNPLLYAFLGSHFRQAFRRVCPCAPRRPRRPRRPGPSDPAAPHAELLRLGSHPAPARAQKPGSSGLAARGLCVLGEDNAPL

[5] = target: T1, KISS1R; set-up: expressed in transfected cells; host or cells: CHO cells; details: [Ca2+] increasing activity, CHO cells expressing human KISS1R; (95% confidence interval); read-out: Agonist activity EC50; cited from earlier work
Target sequence in this assay (Q969F8 whole entry): as the sequence (Q969F8 whole entry, species assumed) above

[6] = test system: healthy men; details: cited from earlier work
[7] = HFD livers, RT-qPCR, vs vehicle
[8] = HFD livers, RT-qPCR, vs vehicle, listed as TAK
[9] = HFD livers, western blot, vs vehicle
[10] = HFD mice, vs vehicle, listed as TAK
[11] = HFD mice, 4 weeks treatment, vs vehicle
[12] = HFD mice, 4 weeks treatment, vs vehicle, listed as TAK
[13] = HFD mice, 4 weeks treatment, vs vehicle, listed as TAK-488
[14] = treated vs untreated mice, 4 weeks post treatment

Molecule: CNC(=N)NCCC[C@H](NC(=O)[C@H](CC(C)C)NC(=O)NNC(=O)[C@H](Cc1ccccc1)NC(=O)[C@@H](NC(=O)[C@H](CC(N)=O)NC(=O)[C@@H]1C[C@@H](O)CN1C(=O)[C@@H](Cc1ccc(O)cc1)NC(C)=O)[C@@H](C)O)C(=O)N[C@@H](Cc1c[nH]c2ccccc12)C(N)=O.O=C(O)C(F)(F)F [TAK-448]
- hepatic expression of PPARy, CD36 and MOGAT1 ([1]; HFD livers, RT-qPCR and western blot, vs vehicle, listed as TAK): significantly reduced; also recorded: inhibited
- Gpam expression in liver [1, 7]: significantly reduced
- Lfabp1 and Gyk1 expression in liver [1, 7]: not significant
- Srebf1 expression in liver [1, 7]: not significant
- liver markers for oxidative stress (Ucp2, Gss) [1, 7]: lower levels
- liver markers for fibrosis (Tgfb1, Timp1) [1, 8]: lower levels; also recorded: reduction
- liver pro-inflammatory markers (Ip10, Mcp1) [1, 8]: lower levels; also recorded: reduction
- Fasn expression in liver [1, 9]: significant decrease
- phosphorylation of AMPK in liver [1, 9]: induced phosphorylation
- liver steatosis / lipid accumulation (H&E, Oil Red O) ([1]; HFD mice): prevented
- liver steatosis / lipid accumulation (H&E, Oil Red O) ([1]; HFD mice, listed as TAK): protected against; also recorded: suppressed
- insulin resistance / sensitivity (ITT) ([1]; HFD mice, vs vehicle): protected against; also recorded: prevented insulin resistance
- insulin resistance / sensitivity (ITT) [1, 10]: insulin sensitive; also recorded: improved
- glucose tolerance (GTT) ([1]; HFD mice, vs vehicle): prevented glucose intolerance
- glucose tolerance (GTT) [1, 10]: glucose tolerant; also recorded: improved
- fasting glucose ([1]; HFD mice, vs vehicle): prevented the rise
- body weight [1, 10]: significantly lower; also recorded: prevented a gain
- fasting glucose [1, 10]: lower
- body weight ([1]; HFD mice, vs vehicle, listed as TAK-488): lowering
- food intake (CLAMS) ([1]; HFD mice, 4 weeks post treatment, vs vehicle): without a change
- food intake (CLAMS) ([1]; HFD mice, 4 weeks post treatment, vs vehicle, listed as TAK): without a change; also recorded: without changing
- food intake (CLAMS) ([1]; HFD mice, 4 weeks post treatment, vs vehicle, listed as Takeda-488): no difference
- epididymal white adipose tissue (eWAT) [1, 11]: significant decrease
- inguinal white adipose tissue (iWAT) [1, 11]: significant decrease
- peripheral fat accumulation / adipose mass [1, 11]: protected against
- serum ALT [1, 11]: significantly lower
- serum/blood free fatty acids (FFA) [1, 11]: prevented
- peripheral fat accumulation / adipose mass [1, 12]: lowered
- serum TGs [1, 12]: significant decrease; also recorded: reduced
- serum cholesterol [1, 12]: significantly lower; also recorded: reduced
- serum/blood free fatty acids (FFA) [1, 12]: significantly lower; also recorded: reduced
- peripheral fat accumulation / adipose mass [1, 13]: lowering
- serum/blood free fatty acids (FFA) [1, 13]: lowering
- liver triglycerides (TGs) [1, 11]: prevented
- serum/blood glycerol [1, 11]: prevented
- liver triglycerides (TGs) [1, 12]: significant decrease
- serum/blood glycerol [1, 12]: significantly lower
- liver triglycerides (TGs) [1, 13]: lowering
- serum/blood glycerol [1, 13]: lowering
- heat production (CLAMS) [1, 14]: no differences
- respiratory exchange ratio (RER, CLAMS) [1, 14]: no differences
- TG accumulation in FFA loaded hepatocytes ([2]; KP 100 nM or TAK 3 nM, 150 µM palmitate and 150 µM oleate, wild-type hepatocytes, n=4): substantially decreased
- half-life in the blood [3]: 4 h

Molecule: ANWNSFGLRF [ANA1]
- IC50 [4]: 23.2 ± 14.3 nM

Molecule: Ac-YNK(Palm-γ-D)NSFGT[Tz]LRY-NH2 [Compound 4**, Decourt et al., 2016 numbering]
- EC50 [5]: 2.1 nM

Molecule: Ac-YNWNSFGT[Tz]LR[Me]Y-NH2 [Compound 7**, Decourt et al., 2016 numbering]
- EC50 [5]: 1.5 nM

Molecule: FNWNSFGLRF [ANA11]
- IC50 [4]: 3.5 ± 2.1 nM

Molecule: Gly-Thr-Ser-Leu-Ser-Pro-Pro-Pro-Glu-Ser-Ser-Gly-Ser-Arg-Gln-Gln-Pro-Gly-Leu-Ser-Ala-Pro-His-Ser-Arg-Gln-Ile-Pro-Ala-Pro-Gln-Gly-Ala-Val-Leu-Val-Gln-Arg-Glu-Lys-Asp-Leu-Pro-Asn-Tyr-Asn-Trp-Asn-Ser-Phe-Gly-Leu-Arg-Phe-NH2 (GTSLSPPPESSGSRQQPGLSAPHSRQIPAPQGAVLVQREKDLPNYNWNSFGLRF-NH2) [Kisspeptin-54]
- food intake or appetite [6]: without altering
- insulin secretion [6]: enhance

Molecule: Palm-γ-DYNWNSFGT[Tz]LR[Me]Y-NH2 [Compound 6**, Decourt et al., 2016 numbering]
- EC50 [5]: 0.17 nM

Molecule: Palm-γ-DYNWNSFG′P[Tz]LRY-NH2 [Compound 5**, Decourt et al., 2016 numbering]
- EC50 [5]: 0.13 nM

Molecule: YAWNSFGLRF [ANA2]
- IC50 [4]: 145 ± 138 nM

Molecule: YDWNSFGLRF [ANA12]
- IC50 [4]: 29.1 ± 13.5 nM

Molecule: YNANSFGLRF [ANA3]
- IC50 [4]: 2.7 ± 0.7 nM

Molecule: YNWASFGLRF [ANA4]
- IC50 [4]: 43.5 ± 15.5 nM

Molecule: YNWDSFGLRF [ANA13]
- IC50 [4]: 140 ± 60.6 nM

Molecule: YNWNAFGLRF [ANA5]
- IC50 [4]: 0.8 ± 0.4 nM

Molecule: YNWNSAGLRF [ANA6]
- IC50 [4]: 110 ± 89.8 nM

Molecule: YNWNSFALRF [ANA7]
- IC50 [4]: 4.6 ± 1.5 nM

Molecule: YNWNSFGARF [ANA8]
- IC50 [4]: 77.4 ± 10 nM

Molecule: YNWNSFGIRF [ANA 16]
- IC50 [4]: 39.9 ± 8.1 nM

Molecule: YNWNSFGLKF [ANA17]
- IC50 [4]: 9.8 ± 2.6 nM

Molecule: YNWNSFGLRF [Kisspeptin-10]
- expression of de novo lipogenic genes ([2]; primary mouse hepatocytes, treatment for 8 hours, RT-qPCR): reduced
- phosphorylation of AMPK and its downstream target ACC ([2]; primary mouse hepatocytes, western blot, n=4): stimulated phosphorylation

Molecule: YNWNSFGLRH [ANA18]
- IC50 [4]: 378 ± 266 nM

Molecule: YNWNSFGLRY [Compound 2**, Decourt et al., 2016 numbering]
- EC50 [5]: 0.057 nM

Molecule: YNWNSYGLRF [ANA15]
- IC50 [4]: 87.5 ± 30.7 nM

Molecule: YNWNTFGLRF [ANA14]
- IC50 [4]: 2.3 ± 1.6 nM
